What was measured:
[1] = target: T1, recombinant acyltransferase derived from Gentiana triflora expressed in E. coli (Gentiana triflora, UniProt Q9ZWR8); assay: Measurement of activity of recombinant acyltransferase (HPLC analysis of reaction products); format: biochemical; details: for amount of product formed in time course of the reaction: 25-fold diluted enzyme, DEL 3G-5G-3′G 50, 100 or 200 μM as substrate, 2.5-20 minutes
T1 construct: a fragment containing the coding region of the acyltransferase and the 3′-untranslated region was subcloned to the NcoI/HindIII site; made in house; host or cells: E. coli JM109 (pQE8, derived from pQE60)
T1 sequence (Q9ZWR8 1-469): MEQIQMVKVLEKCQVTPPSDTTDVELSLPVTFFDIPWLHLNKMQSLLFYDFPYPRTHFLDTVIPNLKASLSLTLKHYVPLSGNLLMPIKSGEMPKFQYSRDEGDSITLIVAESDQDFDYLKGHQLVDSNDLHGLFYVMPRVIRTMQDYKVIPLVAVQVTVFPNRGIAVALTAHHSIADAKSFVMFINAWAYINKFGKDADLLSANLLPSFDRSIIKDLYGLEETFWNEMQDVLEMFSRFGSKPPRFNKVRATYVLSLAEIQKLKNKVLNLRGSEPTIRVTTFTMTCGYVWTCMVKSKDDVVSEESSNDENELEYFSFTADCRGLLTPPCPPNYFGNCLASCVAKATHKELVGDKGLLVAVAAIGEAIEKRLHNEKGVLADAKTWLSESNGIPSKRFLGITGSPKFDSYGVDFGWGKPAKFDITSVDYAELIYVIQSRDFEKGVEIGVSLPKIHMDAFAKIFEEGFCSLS
Description: The enzymatic activity of the recombinant enzyme obtained in Example 1 was measured with 3 types of delphinidin derivatives (delphinidin 3,5,3′-triglucoside (DEL 3G-5G-3′G), delphinidin 3-glucosyl-5-caffeoylglucosyl-3′-glucoside (DEL 3G-5CafG-3′G), delphinidin 3-glucosyl-5-glucosyl-3′-caffeoylglucoside (DEL 3G-5G-3′CafG)) shown in FIG. 1 and FIG. 2 as substrates. The reaction mixture contained 100 mM potassium phosphate buffer (pH 8.5), 0.2 mM caffeoyl-CoA, […] each of the above substrates and 5 μl of the enzyme solution in a total volume of 50 μl, and the reaction was carried out at 30° C. for 15 minutes. An equal volume of 90% acetonitrile solution containing 0.1% trifluoroacetic acid (TFA) was added to the reaction mixture to stop the reaction.
In order to analyze time course changes of reaction products, 5 μl of a 25-fold diluted enzyme solution and each of 50 μM, 100 μM or 200 μM of DEL 3G-5G-3′G were used as a substrate, and the reaction was stopped at 2.5, 5, 10, and 20 minutes later to analyze the products. The reaction products were analyzed with a reverse phase high performance liquid chromatography (HPLC) using a DE-41 column (4.6×250 mm, Shodex). Samples were eluted with an liner gradient of 20-50% of acetonitrile containing 0.5% TFA at 0.6 ml/min for 15 minutes, and then isoclatic elution at 0.6 ml/min for 10 minutes, and detected with SPD-M10A (SHIMAZU Corporation) at a wavelength of 250-600 nm. The HPLC elution time and absorption spectra of products were compared with those of authentic samples to identify the structure of products.

[2] = target: T2, aromatic acyltransferase purified from gentian petals (Gentiana triflora, UniProt Q9ZWR8); assay: Activity of aromatic acyltransferase purified from gentian petals (active fraction adsorbed to Dyematrix column Red); format: biochemical; details: as in Example 2
T2 construct: an enzyme naturally occurring in gentian petals also has both activities; from tissue; host or cells: Gentiana petals
T2 sequence (Q9ZWR8 1-469): T1 sequence (Q9ZWR8 1-469)
Excerpt: The recombinant protein obtained by expressing a gentian cDNA of an aromatic acyltransferase in E. coli turned out to have an activity of transferring aromatic acyl groups to glucoses at the 5 and the 3′ position of a anthocyanin (Example 2). In order to confirm that an enzyme naturally occurring in gentian petals also has both activities of the 5-aromatic acyltransferase and the 3′-aromatic acyl transferase, this enzyme was purified from gentian petals. In a series of purification, as described in Example 2, each eluted fraction of column chromatography was measured for 5-aromatic acyltransferase activity with DEL 3G-5G as a substrate and for 3′-aromatic acyltransferase activity with DEL 3G-5G-3′G as a substrate.
According to a report by Fujiwara et al. (Fujiwara et al., Eur. J. Biochem. 249: 45, 1997) in which a gentian 5-aromatic acyltransferase was purified, 40-70% ammonium sulfate-saturated fraction was obtained from extract of approximately 100 g of Gentiana petals. This fraction was dialyzed with Sephadex G-25 (Pharmacia) equilibrated with 20 mM Tris-HCl (pH 7.0) containing 10 μM p-aminophenylmethanesulfonyl fluoride (APMSF) and 1 mM DTT (hereinafter referred to as the Tris buffer), then it was loaded to MONO Q (Pharmacia) equilibrated with the Tris buffer. […]
The active fractions were loaded to HiTrap Blue (Pharmacia) and extensively washed in the Tris buffer, and then the adsorbed fraction was eluted with a Tris buffer containing 0.9 M NaCl. […] When the eluted protein was subject to SDS-PAGE, only a single band was detected at molecular weight of 52 kDa which is an estimated molecular weight for an anthocyanin 5-acyltransferase.
In a series of purifications, each eluted fraction of column chromatography was measured for the 5-aromatic acyltransferase activity with DEL 3G-5G as a substrate and for the 5,3′-aromatic acyltransferase activity with DEL 3G-5G-3′G as a substrate, and the fractions with the highest activity in both acyltransferase reactions were completely identical.

[3] = Flower color simulation: purified pigment in juice squeezed from rose petals (cv. Medeo); format: physicochemical; details: Medeo squeezed juice (petal pH 4.38), diluted 4-fold; among five purified pigments
Description: In order to simulate the flower color when the gene for gentian anthocyanin 5,3′-acyltransferase was introduced into roses and DEL 3G-5CafG-3′CafG was accumulated in rose petals, the color development of a purified pigment suspended in juice squeezed form rose petals (cv. Medeo) was measured. As for purified pigments, DEL 3G-5CafG-3′CafG, and as a comparative control, DEL 3G-5G, cyanidin 3,5-diglucoside (CYA 3G-5G), pelargonidin 3,5-diglucoside (PEL 3G-5G) and malvidin 3,5-diglucoside (MAL 3G-5G) were used. About 20 g of Medeo petals frozen at −80° C. for more than one hour were squeezed by a garlic squeezer for household use, and centrifuged at 1000 rpm for 1 minute to remove the debris of the petals, and the supernatant was prepared as the squeezed juice.
Twenty μl of 50 mM DMSO solution of purified pigment was added to 1 ml of the squeezed juice, and kept for 10 minutes, and the absorption and transmittance spectra at 380-780 nm were measured with a spectrophotometer UV-2500PC(SHIMADZU Corporation). The transmittance spectrum values were converted into CIE L*a*b* color system (JISZ8729). […] However, since the absorbance for 3G-5CafG-3′CafG was too high, it was diluted 4-fold prior to measurement.

[4] = among four delphinidin glucosides, cited from earlier work
[5] = target: T3, 5,3′-aromatic acyltransferase from Gentiana triflora expressed in nierembergia (Gentiana triflora, UniProt Q9ZWR8); assay: In vitro 5,3′-aromatic acyltransferase activity of crude enzyme from petals of nierembergia transformants; format: biochemical; details: in a manner similar to Example 2
T3 construct: expressed in transfected cells; host or cells: petals of transgenic nierembergia (binary construct pSPB1536, 35S promoter)
T3 sequence (Q9ZWR8 1-469): T1 sequence (Q9ZWR8 1-469)
Excerpt: On the other hand, a crude enzyme was extracted from the petals of the transformants where transcription of all three genes were confirmed, in a manner as described in the report by Fujiwara et al. (Fujiwara et al., (1997) Eur. J. Biochem. 249: 45-51). […] On the other hand, when the crude enzyme from a non-recombinant nierembergia was used as the control, gentiodelphin was not detected.

[6] = 250 mM substrate, 0.2 mM caffeoyl-CoA, pH 8.5, 30° C., 15 minutes, undiluted enzyme

Molecule | substrate converted to DEL 3G-5CafG-3′CafG [1, 6] [%] | amount of product formed in time course of the reaction [1] | reaction of the enzyme purified from gentian petals with the substrate [2] | maximum absorption spectrum (relative) [3] | absorbance maximum (relative wavelength) [4] | blueness (relative) [4] | relative stability (fading) ([4]; aqueous solution of pH 6.5) | substrate converted to DEL 3G-5CafG-3′G (acyl group at the 5 position alone) [1, 6] [%] | substrate converted to DEL 3G-5G-3′CafG (acyl group at the 3′ position alone) [1, 6] [%] | product formation from the substrate by crude enzyme of transgenic nierembergia [5]
delphinidin 3-glucosyl-5-glucosyl-3′-caffeoylglucoside [DEL 3G-5G-3′CafG] | 95.2 | barely detected | reacted |  |  |  |  |  |  | 
O=C(/C=C/c1ccc(O)c(O)c1)OC[C@H]1O[C@@H](Oc2cc(-c3[o+]c4cc(O)cc(O[C@@H]5O[C@H](COC(=O)/C=C/c6ccc(O)c(O)c6)[C@@H](O)[C@H](O)[C@H]5O)c4cc3O[C@@H]3O[C@H](CO)[C@@H](O)[C@H](O)[C@H]3O)cc(O)c2O)[C@H](O)[C@@H](O)[C@@H]1O [DEL 3G-5CafG-3′CafG, gentiodelphin] |  | increased according to the reaction time |  | largest maximum absorption spectrum | longest wavelength | most blueish | most stable and refractory to fading |  |  | 
OC[C@H]1O[C@@H](Oc2cc3c(O[C@@H]4O[C@H](CO)[C@@H](O)[C@H](O)[C@H]4O)cc(O)cc3[o+]c2-c2cc(O)c(O)c(O[C@@H]3O[C@H](CO)[C@@H](O)[C@H](O)[C@H]3O)c2)[C@H](O)[C@@H](O)[C@@H]1O [DEL 3G-5G-3′G, delphinidin 3,5,3′-triglucoside] | 58.7 |  | reacted |  |  |  |  | 7.2 | ≤ 1 | formation of gentiodelphin was confirmed
delphinidin 3-glucosyl-5-caffeoylglucosyl-3′-glucoside [DEL 3G-5CafG-3′G] | 94.1 | increased according to the reaction time | reacted |  |  |  |  |  |  | 
